Test results taken from ChEMBL document CHEMBL1148414, “Conformer- and alignment-independent model for predicting structurally diverse competitive CYP2C9 inhibitors” (J Med Chem, 2004).

Molecular target: Cytochrome P450 2C9 (Homo sapiens, UniProt P11712)
Assay: Binding affinity towards cytochrome P450 2C9
Type: ADME

Chain of Cytochrome P450 2C9 (P11712 whole entry): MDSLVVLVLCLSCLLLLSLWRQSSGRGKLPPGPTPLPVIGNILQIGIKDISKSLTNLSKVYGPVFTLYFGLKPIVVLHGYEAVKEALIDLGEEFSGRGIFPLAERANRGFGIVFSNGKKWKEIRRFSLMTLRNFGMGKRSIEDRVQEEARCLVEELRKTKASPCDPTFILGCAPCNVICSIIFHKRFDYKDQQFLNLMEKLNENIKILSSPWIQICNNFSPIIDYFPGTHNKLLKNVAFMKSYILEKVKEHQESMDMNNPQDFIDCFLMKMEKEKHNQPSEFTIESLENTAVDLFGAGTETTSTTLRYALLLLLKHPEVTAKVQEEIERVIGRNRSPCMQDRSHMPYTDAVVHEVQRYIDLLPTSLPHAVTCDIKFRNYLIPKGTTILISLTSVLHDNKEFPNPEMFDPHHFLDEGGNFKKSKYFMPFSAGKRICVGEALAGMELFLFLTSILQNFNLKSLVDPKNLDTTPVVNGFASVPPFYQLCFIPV

Structure (SMILES)	Ki [µM]
COCCCC/C(=N\OCCN)c1ccc(C(F)(F)F)cc1 [FLUVOXAMINE]	8.5
O=C1NC(=O)C2(N1)c1ccccc1-c1ccccc12	125
COCCCOc1ccnc(C[S@@+]([O-])c2nc3ccccc3[nH]2)c1C [DEXRABEPRAZOLE]	36
Clc1ccc(CO[C@H](Cn2ccnc2)c2ccc(Cl)cc2Cl)c(Cl)c1	6
Clc1ccc(CO[C@@H](Cn2ccnc2)c2ccc(Cl)cc2Cl)c(Cl)c1 [(R)-MICONAZOLE]	6
O=c1c(O)c(-c2ccc(O)cc2)oc2cc(O)cc(O)c12 [KAEMPFEROL]	6
COc1cc(C(=O)NS(=O)(=O)c2ccccc2C)ccc1Cc1cn(C)c2ccc(NC(=O)OC3CCCC3)cc12 [ZAFIRLUKAST]	2.5
Nc1c(Oc2ccc(Cl)cc2Cl)ccc(Cl)c1S(=O)(=O)O	20
Cc1nn(C)c(C)c1NC(=O)c1ccccc1NS(=O)(=O)c1cc(Cl)sc1Cl	17
CC(=O)[C@H]1CC[C@H]2[C@@H]3CCC4=CC(=O)CC[C@]4(C)[C@H]3CC[C@]12C [PROGESTERONE]	5.5
CO[C@@]1(C)C[C@H](c2ccccc2)c2c(c3ccccc3oc2=O)O1	16
CCCCC1C(=O)N(c2ccccc2)N(c2ccccc2)C1=O [PHENYLBUTAZONE]	19
CC(=O)C[C@H](c1ccccc1)C1C(=O)Oc2ccccc2C1O (some centres undefined)	13.6
COCCCOc1ccnc(C[S@+]([O-])c2nc3ccccc3[nH]2)c1C	37
CO[C@]1(C)C[C@H](c2ccccc2)C2C(=O)Oc3ccccc3C2O1 (some centres undefined)	16

Second part, the molecule after the results:

Ki [µM]	Structure (SMILES)
60	[O-][S@@+](Cc1cc(OCC2CC2)ccn1)c1nc2ccc(F)cc2[nH]1
245	c1ccc2[nH]c(-c3cscn3)nc2c1 [THIABENDAZOLE]
93	[O-][S@+](Cc1cc(OCC2CC2)ccn1)c1nc2cc(F)ccc2[nH]1
64	COC(=O)c1ccc2[nH]c([S@@+]([O-])Cc3nccc(OC)c3OC)nc2c1
64	COc1ccnc(C[S@+]([O-])c2nc3cc(OC(F)F)ccc3[nH]2)c1OC
35	COc1ccc2nc(S(=O)(=O)Cc3ncc(C)c(OC)c3C)[nH]c2c1 [OMEPRAZOLE SULFONE]
145	COc1ccnc(C[S@@+]([O-])c2nc3cc(OC(F)F)ccc3[nH]2)c1OC
140	COC(=O)c1ccc2nc([S@+]([O-])Cc3nccc(OC)c3OC)[nH]c2c1
45	COc1ccc2[nH]c([S+]([O-])Cc3ncc(C)c(OC)c3C)nc2c1 (centres undefined) [OMEPRAZOLE]
